The text below walks through data of the Bradley open melting point set (2014).

Values joined by “and” are separate entries in the source; they are usually repeats but may differ in a detail not shown here. Equal entries are not always repeated. Structures can show the parent of a compound that is named as a salt.

Usually melting point stands for the temperature, or range, at which the solid turns liquid. Compound `CCOc1ccc(NC(C)=O)cc1` [phenacetin] returned a melting point of 134 °C.

In the case of `CC(C)c1cccc(C(C)C)c1O` [2,6-diisopropylphenol], the melting point is 18 °C.

`Cc1cccc[n+]1[O-]` [2-picoline n-oxide] gave a melting point of 48 °C.

As to `c1ccc2c(c1)[nH]c1ccccc12` [carbazole], the melting point was 247 °C and 243 °C.

As for `N[C@H](Cc1ccccc1F)C(=O)O` [2-fluoro-D-phenylalanine], the melting point worked out at 210 °C.

Consider `CCOC(=O)c1c[nH]nc1N` [ethyl 3-amino-1h-pyrazole-4-carboxylate], for which the melting point was 106 °C.

Compound `CCCCCCCCCCBr` [1-bromodecane] showed a melting point of -29 °C.

As to `CC(C)(C)I` [2-iodo-2-methylpropane], the melting point was -38 °C.

On to `CCCCCCCc1ccc(C(=O)O)cc1` [4-Heptylbenzoic acid], for which the melting point stood at 69.8 °C.

`Cc1ccc(O)cc1` [p-cresol]: the melting point was 33 °C.

In the case of `C[Si]1(C)O[Si](C)(C)O[Si](C)(C)O[Si](C)(C)O1` [octamethylcyclotetrasiloxane], the melting point worked out at 18 °C.

With `C[C@]12CCC(=O)C=C1CC[C@@H]1[C@@H]2CC[C@@]2(C)[C@H]1CC[C@]2(C)O` [methyltestosterone], the melting point is 164 °C.

In the case of `CCCCCCCCCCSc1cc(N(NC(=O)OC(C)(C)C)C(=O)OC(C)(C)C)cc(SCCCCCCCCCC)c1SCCCCCCCCCC`, the melting point came out at 50.5 °C.

`COc1cc(Cl)cc(B(O)O)c1` [3-chloro-5-methoxybenzeneboronic acid] yielded a melting point of 187 °C.

`OB(O)c1ccc(Cl)c(Cl)c1` [3,4-dichlorobenzeneboronic acid]: the melting point amounted to 272 °C.

In the case of `Clc1ccc(C(c2ccc(Cl)cc2)C(Cl)(Cl)Cl)cc1` [4,4'-DDT], the melting point came to 110 °C.

`O=C1/C(=N/Nc2cccc([N+](=O)[O-])c2)C(C(F)(F)F)=NN1c1ccccc1` showed a melting point of 151 °C.

Compound `Cc1cccc([N+](=O)[O-])c1` [m-nitrotoluene] gave a melting point of 16 °C.

`OB(O)c1ccnc(F)c1Cl` [3-chloro-2-fluoropyridine-4-boronic acid] displayed a melting point of 128 °C.

`CC(=O)c1cc(O)cc(O)c1` [3',5'-dihydroxyacetophenone] showed a melting point of 144 °C.

For the compound `O=C1NC(=O)c2cc([N+](=O)[O-])ccc21` [4-nitrophthalimide], the melting point is 202 °C.

With `FC(F)(F)c1ccc(Br)nc1` [2-bromo-5-(trifluoromethyl)pyridine], the melting point is 46 °C.

The compound `CCOC(=O)CC(O)(CC(=O)OCC)C(=O)OCC` [triethyl citrate] returned a melting point of -55 °C.

For the compound `NC1CCCCC1` [cyclohexylamine], the melting point is -17 °C and -17.7 °C.

`O=C(O)CCCCCCC(=O)O` [suberic acid] yielded a melting point of 143 °C.

The compound `COc1ccc2[nH]c([S+]([O-])Cc3ncc(C)c(OC)c3C)nc2c1` (centres undefined) [Omeprazole] showed a melting point of 156 °C.

Consider `Nc1cc(C(F)(F)F)ccc1Cl` [2-chloro-5-(trifluoromethyl)aniline], for which the melting point stood at 9 °C.

`C[SiH](C)O[Si](O[SiH](C)C)(O[SiH](C)C)O[SiH](C)C` [tetrakis(dimethylsiloxy)silane] yielded a melting point of -60 °C.

Consider `Oc1cccc(Cl)c1` [m-chlorophenol], for which the melting point amounted to 34 °C.

As for `Nc1ccc2cc(O)ccc2c1` [6-Amino-2-naphthalenol], the melting point was determined as 185 °C.

Consider `CCN1CCNC(=O)C1=O` [1-ethylpiperazine-2,3-dione], for which the melting point came to 110 °C.

In turn, `C#CC1(O)CCC2C3CCc4cc(O)ccc4C3CCC21C` (centres undefined) [ethinylestradiol] had a melting point of 141 °C.

Consider `Cn1c2c(c3ccccc31)CCCC2` [N-methyl-1,2,3,4-tetrahydrocarbazole], for which the melting point worked out at 53 °C.

The compound `OC/C=C/c1ccccc1` [cinnamyl alcohol] gave a melting point of 34 °C.

As to `CCCCCCc1ccccc1` [Hexylbenzene], the melting point was -61 °C.

In turn, `SCCS` [Ethane-1,2-dithiol] showed a melting point of -41 °C.

As to `CC(C)CBr` [1-bromo-2-methylpropane], the melting point is -117 °C and -118 °C.

In turn, `CN1/C(=C(\O)Nc2ccccn2)C(=O)c2ccccc2S1(=O)=O` [Piroxicam] had a melting point of 198 °C.

Consider `CC1(C)OC(=O)NC1=O` [5,5-dimethyloxazolidine-2,4-dione], for which the melting point amounted to 79 °C.

With `COc1cc(F)ccc1C(=O)O` [4-fluoro-2-methoxybenzoic acid], the melting point was found to be 135 °C.

`OCC#CCO` [But-2-yne-1,4-diol] displayed a melting point of 57 °C.

Consider `COc1ccc(Cl)cc1C(=O)NCCc1ccc(S(=O)(=O)NC(=O)NC2CCCCC2)cc1` [glybenzcyclamide], for which the melting point amounted to 173 °C.

`CC(=O)c1ccccc1C(N)=O` [o-acetylbenzamide] showed a melting point of 122 °C.

In turn, `COC(=O)c1ccc(C(=O)O)cc1` [mono-methyl_terephthalate] returned a melting point of 221 °C.

Compound `Cc1ccc(CCc2ccc(C)cc2)cc1` [4,4'-Dimethylbibenzyl] had a melting point of 78 °C.

Compound `NC(=O)c1ccccc1` [Benzamide] showed a melting point of 127 °C.

Consider `O=C(O)C(CBr)CBr` [3-bromo-2-(bromomethyl)propionic acid], for which the melting point is 100 °C.

`CC(=O)c1cccc(C(C)=O)c1` [m-diacetylbenzene] registered a melting point of 36 °C.

Consider `CCCCOCC` [ethyl_butyl_ether], for which the melting point is -103 °C.

The compound `COc1ccc(Cl)c(Cl)c1Cl` [1-methoxy-2,3,4-trichlorobenzene] yielded a melting point of 70 °C.

With `O=C(c1ccc(F)cc1)c1ccc(F)cc1` [4,4'-difluorobenzophenone], the melting point came to 108 °C.

As for `c1ccc2c(c1)ccc1cc3c(ccc4ccccc43)cc12` [Dibenz[ah]anthracene], the melting point was determined as 269 °C.

For the compound `CCC1(CC)C(=O)CCNC1=O` [piperidione], the melting point is 102 °C.

As for `CCOC(=O)C(C#N)=C(SC)N(C)C` [ethyl 2-cyano-3-(dimethylamino)-3-(methylthio)acrylate], the melting point worked out at 92 °C.

Regarding `OB(O)c1cc2ccccc2nc1Br` [2-bromoquinoline-3-boronic acid], the melting point is 146 °C.

The compound `CCOC(=O)c1ccc(-n2cccc2)cc1` [ethyl 4-(1-pyrrolyl)benzoate] yielded a melting point of 75 °C.

On to `OC1CCCCCCCCCCC1` [cyclododecanol], for which the melting point amounted to 78 °C.

Compound `CCn1cc(C(=O)O)c(=O)c2cc(F)c(N3CCNC(C)C3)c(F)c21` (centres undefined) [lomefloxacin] displayed a melting point of 240 °C.

Compound `CC(CN1c2ccccc2Sc2ccccc21)N(C)C` (centres undefined) [promethazine] displayed a melting point of 60 °C.

Regarding `O=[N+]([O-])c1ccc(Cl)c(Cl)c1` [3,4-Dichloronitrobenzene], the melting point turned out to be 41.3 °C.

In the case of `O=Cc1ccc(O)c(O)c1O` [2,3,4-trihydroxybenzaldehyde], the melting point amounted to 161 °C.

`CNC(=NC#N)NCCSCc1nc[nH]c1C` [cimetidine] had a melting point of 141 °C.

`OCC(c1ccccc1)c1ccccc1` [2,2-Diphenylethanol] showed a melting point of 54.5 °C.

Turning to `CCCCOc1ccccc1` [N-butyl phenyl ether], the melting point was -19 °C.

In turn, `O=[N+]([O-])c1cc(Cl)ccc1O` [2-Nitro-4-chlorophenol] returned a melting point of 89 °C.

In turn, `NS(=O)(=O)c1ccc(Cl)cc1` [4-chlorobenzenesulfonamide] displayed a melting point of 146 °C.

In the case of `OC(c1ccc(Cl)cc1)(c1ccc(Cl)cc1)C(Cl)(Cl)Cl` [2,2,2-Trichloro-1,1-bis(4-chlorophenyl)ethanol], the melting point was 78.5 °C.

As to `NC1CCCCC1` [Cyclohexanamine], the melting point was -18 °C.

The compound `COc1ccc(O)cc1OC` [3,4-dimethoxyphenol] gave a melting point of 83 °C.

For `CCCCCCCCc1ccccc1` [N-octylbenzene], the melting point is -36 °C.

Take `O=C(O)CCC(=O)O` [succinic_acid]: the melting point came out at 188 °C.

In turn, `O=C(O)/C=C/c1cccc(OC(F)(F)F)c1` [3-(trifluoromethoxy)cinnamic acid] yielded a melting point of 94 °C.

For `NC(=O)c1ccccc1` [benzamide], the melting point is 129 °C and 130 °C.

Consider `CCCCCCCCCCCCCCCCCCCC` [N-eicosane], for which the melting point was 37 °C.

On to `Nc1c2c(nc3ccccc13)CCCC2O` (centres undefined) [velnacrine], for which the melting point is 245 °C.

Take `CC(=O)CC(=O)c1ccccc1` [benzoylacetone]: the melting point was 59 °C.

The compound `Cc1ccc(NC(=O)Nc2ccc(C)cc2)cc1` [1,3-bis(4-tolyl)urea] registered a melting point of 266 °C.

Turning to `Cc1ccc(C#N)cc1C` [3,4-dimethylbenzonitrile], the melting point is 66 °C.

Take `O=Cc1ccc(Cl)cc1Cl` [2,4-dichlorobenzaldehyde]: the melting point is 73 °C.

For `Nc1ncnc2c1ncn2[C@@H]1O[C@H](CO)[C@@H](O)[C@H]1O` [adenosine], the melting point was found to be 234 °C.

Take `CCCCc1ccc(/N=N/c2ccc(OCCC)cc2)cc1` [(E)-1-(4-butylphenyl)-2-(4-propoxyphenyl)diazene]: the melting point was 67 °C.

`Clc1cc(Cl)c(-c2cc(Cl)c(Cl)cc2Cl)cc1Cl` [PCB-153] came in with a melting point of 103 °C.

Compound `COC(=O)CCC(C)C1CCC2C3CCC4CC(=O)CCC4(C)C3CCC12C` (centres undefined) [methyl 3-oxocholan-24-oate] yielded a melting point of 117 °C.

For the compound `[O-][n+]1ccccc1Cl` [2-chloropyridine n-oxide], the melting point is 69 °C.

Regarding `Nc1ccc(-c2ccc3nn(-c4ccccc4)nc3c2)cc1` [4-(2-phenyl-2H-benzotriazol-5-yl)aniline], the melting point stood at 143 °C.

Regarding `Nc1ccc(I)cc1` [4-Iodoaniline], the melting point is 61 °C.

`O=Cc1ccc2c(c1)OCCO2` [1,4-benzodioxane-6-carboxaldehyde] returned a melting point of 50 °C.

With `OCc1cc(Cl)ccc1O` [5-chloro-2-hydroxybenzyl alcohol], the melting point worked out at 86 °C.

Compound `CC(=O)c1cccc(O)c1` [3-hydroxyacetophenone] showed a melting point of 89 °C.
